Test results from patent EP1118612A1, “Piperazine derivatives possesing nootropic activity” (Universita Degli Studi di Firenze, priority 2000, dated 2001).

Test system: mice
Experiment: Passive-Avoidance test (modified step-through, fall into cold water bath), amnesia induced by scopolamine, baclofen, mecamylamine or clonidine
Assay type: in vivo, mouse
Settings: for 2nd Day (latency time for entering the dark compartment, retention test after 24 h): max latency 120 s
Protocol: A slightly modified step-through method described by Jarvik and [Psycol. Rep. […] The apparatus consists of a two-compartment acrylic box with a lighted compartment connected to the darkened one by a guillotine door. In the original method, mice received a punishing electrical shock as soon as they entered the dark compartment, while in our modified method, after entry into the dark compartment, mice receive a non-painful punishment consisting of a fall (from 40 cm ) into a cold water bath (10°C) . For this purpose the dark chamber was constructed with a pitfall floor. The latency times for entering the dark compartment were measured in the training test (first day) and after 24 h in the retention test (second day). […] All investigated drugs were injected 20 min before the training session, while amnesic drugs were injected immediately after termination of the training session. […] The memory degree of received punishment (fall into cold water) was expressed as the increase in seconds between training and retention latencies (see Table 5).

[1] = 0.001 mg kg^-1 injected 20 min before training, + Scopolamine 1.5 mg kg^-1 i.p. after training
[2] = 0.1 mg kg^-1, + Scopolamine 1.5 mg kg^-1 i.p.
[3] = 0.1 mg kg^-1 injected 20 min before training, + Scopolamine 1.5 mg kg^-1 i.p. after training
[4] = 1.0 mg kg^-1 injected 20 min before training, + Baclofen 2 mg kg^-1 i.p. after training
[5] = 1.0 mg kg^-1 injected 20 min before training, + Clonidine 0.125 mg kg^-1 i.p. after training
[6] = 10 mg kg^-1 injected 20 min before training, + Scopolamine 1.5 mg kg^-1 i.p. after training
[7] = 20 mg kg^-1 injected 20 min before training, + Mecamilamine 20 mg kg^-1 i.p. after training
[8] = 0.01 mg kg^-1, + Scopolamine 1.5 mg kg^-1 i.p.
[9] = 0.01 mg kg^-1 injected 20 min before training, + Scopolamine 1.5 mg kg^-1 i.p. after training
[10] = 0.1 mg kg^-1 injected 20 min before training, + Baclofen 2 mg kg^-1 i.p. after training
[11] = 0.1 mg kg^-1 injected 20 min before training, + Clonidine 0.125 mg kg^-1 i.p. after training
[12] = 1 mg kg^-1 injected 20 min before training, + Mecamilamine 20 mg kg^-1 i.p. after training
[13] = 30 mg kg^-1 injected 20 min before training, + Baclofen 2 mg kg^-1 i.p. after training
[14] = 30 mg kg^-1 injected 20 min before training, + Scopolamine 1.5 mg kg^-1 i.p. after training
[15] = 0.01 mg kg^-1 injected 20 min before training, + Baclofen 2 mg kg^-1 i.p. after training
[16] = 10 mg kg^-1 injected 20 min before training, + Mecamilamine 20 mg kg^-1 i.p. after training

Structure (SMILES): O=C1CCC2CN(S(=O)(=O)c3ccc(F)cc3)CCN12 (racemic) [Compound 2, 4-(4-fluorobenzensolfonyl)-1,4-diazabicyclo[4.3.0]nonan-9-one]
- Δ (increase in seconds between training and retention latencies) (0.001 mg kg^-1, + Scopolamine 1.5 mg kg^-1 i.p.): 93.8 s
- 1st Day (latency time for entering the dark compartment, training test) [1]: 19.7 ± 5.8 s
- 2nd Day (latency time for entering the dark compartment, retention test after 24 h) [1]: 104.4 ± 10.6 s

Structure (SMILES): C[C@H]1C[C@@H]2CN(C(=O)c3ccc(F)cc3)CCN2C1=O (racemic) [Compound 3a, Exo (±) 8-methyl-4-(4-fluorobenzoyl)-1,4-diazabicyclo[4.3.0]nonan-9-one]
- Δ (increase in seconds between training and retention latencies) [2]: 85.6 s
- 1st Day (latency time for entering the dark compartment, training test) [3]: 21.8 ± 4.8 s
- 2nd Day (latency time for entering the dark compartment, retention test after 24 h) [3]: 107.4 ± 10.7 s

Structure (SMILES): C[C@@H]1C[C@@H]2CN(C(=O)c3ccc(F)cc3)CCN2C1=O (racemic) [Compound 3b, Endo (±) 8-methyl-4-(4-fluorobenzoyl)-1,4-diazabicyclo[4.3.0]nonan-9-one]
- Δ (increase in seconds between training and retention latencies) [2]: 80.0 s
- 1st Day (latency time for entering the dark compartment, training test) [3]: 12.5 ± 5.9 s
- 2nd Day (latency time for entering the dark compartment, retention test after 24 h) [3]: 104.0 ± 8.6 s

Structure (SMILES): O=C(c1ccc(F)cc1)N1CCN2C(=O)CCC2C1 (stereo not shown) [Compound 1, 4-(4-fluorobenzoyl)-1,4-diazabicyclo[4.3.0]nonan-9-one]
- Δ (increase in seconds between training and retention latencies) [2]: 82.2 s
- 1st Day (latency time for entering the dark compartment, training test) [3]: 18.1 ± 3.9 s
- 2nd Day (latency time for entering the dark compartment, retention test after 24 h) [3]: 100.3 ± 10.4 s

Structure (SMILES): C[C@H]1C[C@@H]2CN(S(=O)(=O)c3ccc(F)cc3)CCN2C1=O [Compound 4a, Exo 8-methyl-4-(4-fluorobenzensolfonyl)-1,4-diazabicyclo[4.3.0]nonan-9-one]
- Δ (increase in seconds between training and retention latencies) [2]: 78.0 s
- 1st Day (latency time for entering the dark compartment, training test) [3]: 16.9 ± 6.1 s
- 2nd Day (latency time for entering the dark compartment, retention test after 24 h) [3]: 94.9 ± 11.2 s

Structure (SMILES): C[C@@H]1C[C@@H]2CN(S(=O)(=O)c3ccc(F)cc3)CCN2C1=O [Compound 4b, Endo 8-methyl-4-(4-fluorobenzensolfonyl)-1,4-diazabicyclo[4.3.0]nonan-9-one]
- Δ (increase in seconds between training and retention latencies) [2]: 96.5 s
- 1st Day (latency time for entering the dark compartment, training test) [3]: 21.9 ± 4.7 s
- 2nd Day (latency time for entering the dark compartment, retention test after 24 h) [3]: 118.4 ± 10.2 s

Structure (SMILES): CC(=O)N1CCN(C(=O)c2ccc(F)cc2)CC1 [Compound 5, 4-Acetyl-1-(4-fluorobenzoyl)piperazine]
- Δ (increase in seconds between training and retention latencies) (1.0 mg kg^-1, + Baclofen 2 mg kg^-1 i.p.): 93.2 s
- Δ (increase in seconds between training and retention latencies) (1.0 mg kg^-1, + Clonidine 0.125 mg kg^-1 i.p.): 88.1 s
- 1st Day (latency time for entering the dark compartment, training test) [4]: 11.4 ± 5.2 s
- 2nd Day (latency time for entering the dark compartment, retention test after 24 h) [4]: 104.6 ± 10.3 s
- 1st Day (latency time for entering the dark compartment, training test) [5]: 8.0 ± 4.1 s
- 2nd Day (latency time for entering the dark compartment, retention test after 24 h) [5]: 96.1 ± 10.7 s
- Δ (increase in seconds between training and retention latencies) (10 mg kg^-1, + Scopolamine 1.5 mg kg^-1 i.p.): 72.6 s
- 1st Day (latency time for entering the dark compartment, training test) [6]: 17.5 ± 6.1 s
- 2nd Day (latency time for entering the dark compartment, retention test after 24 h) [6]: 91.1 ± 9.5 s
- Δ (increase in seconds between training and retention latencies) (20 mg kg^-1, + Mecamilamine 20 mg kg^-1 i.p.): 91.7 s
- 1st Day (latency time for entering the dark compartment, training test) [7]: 17.0 ± 2.7 s
- 2nd Day (latency time for entering the dark compartment, retention test after 24 h) [7]: 108.7 ± 3.5 s

Structure (SMILES): CC(=O)N1CCN(S(=O)(=O)c2ccc(F)cc2)CC1 [Compound 6, 4-Acetyl-1-(4-fluorobenzensolfonyl)piperazine]
- Δ (increase in seconds between training and retention latencies) [8]: 79.2 s
- 1st Day (latency time for entering the dark compartment, training test) [9]: 19.8 ± 4.1 s
- 2nd Day (latency time for entering the dark compartment, retention test after 24 h) [9]: 99.0 ± 18.3 s
- Δ (increase in seconds between training and retention latencies) (0.1 mg kg^-1, + Baclofen 2 mg kg^-1 i.p.): 80.4 s
- Δ (increase in seconds between training and retention latencies) (0.1 mg kg^-1, + Clonidine 0.125 mg kg^-1 i.p.): 77.4 s
- 1st Day (latency time for entering the dark compartment, training test) [10]: 11.7 ± 4.1 s
- 2nd Day (latency time for entering the dark compartment, retention test after 24 h) [10]: 92.1 ± 7.9 s
- 1st Day (latency time for entering the dark compartment, training test) [11]: 14.7 ± 3.7 s
- 2nd Day (latency time for entering the dark compartment, retention test after 24 h) [11]: 92.4 ± 8.1 s
- Δ (increase in seconds between training and retention latencies) (1 mg kg^-1, + Mecamilamine 20 mg kg^-1 i.p.): 91.6 s
- 1st Day (latency time for entering the dark compartment, training test) [12]: 18.1 ± 3.8 s
- 2nd Day (latency time for entering the dark compartment, retention test after 24 h) [12]: 109.7 ± 13.6 s

Structure (SMILES): CCC(=O)N1CCN(C(=O)c2ccc(F)cc2)CC1 [Compound 7, 4-Propionyl-1-(4-fluorobenzoyl)piperazine]
- Δ (increase in seconds between training and retention latencies) (30 mg kg^-1, + Baclofen 2 mg kg^-1 i.p.): 86.8 s
- Δ (increase in seconds between training and retention latencies) (30 mg kg^-1, + Scopolamine 1.5 mg kg^-1 i.p.): 80.5 s
- 1st Day (latency time for entering the dark compartment, training test) [13]: 20.6 ± 4.9 s
- 2nd Day (latency time for entering the dark compartment, retention test after 24 h) [13]: 107.1 ± 11.4 s
- 1st Day (latency time for entering the dark compartment, training test) [14]: 11.9 ± 5.6 s
- 2nd Day (latency time for entering the dark compartment, retention test after 24 h) [14]: 92.4 ± 10.1 s

Structure (SMILES): CCC(=O)N1CCN(S(=O)(=O)c2ccc(F)cc2)CC1 [Compound 8, 4-Propionyl-1-(4-fluorobenzensolfonyl)piperazine]
- Δ (increase in seconds between training and retention latencies) (0.01 mg kg^-1, + Baclofen 2 mg kg^-1 i.p.): 86.8 s
- Δ (increase in seconds between training and retention latencies) [8]: 67.9 s
- 1st Day (latency time for entering the dark compartment, training test) [15]: 16.3 ± 3.3 s
- 2nd Day (latency time for entering the dark compartment, retention test after 24 h) [15]: 103.3 ± 13.9 s
- 1st Day (latency time for entering the dark compartment, training test) [9]: 15.9 ± 3.2 s
- 2nd Day (latency time for entering the dark compartment, retention test after 24 h) [9]: 83.8 ± 9.2 s
- Δ (increase in seconds between training and retention latencies) (10 mg kg^-1, + Mecamilamine 20 mg kg^-1 i.p.): 90.2 s
- 1st Day (latency time for entering the dark compartment, training test) [16]: 16.5 ± 2.7 s
- 2nd Day (latency time for entering the dark compartment, retention test after 24 h) [16]: 106.7 ± 10.2 s

Structure (SMILES): NC(=O)CN1CCCC1=O [Piracetam, piracetam, reference compound]
- 1st Day (latency time for entering the dark compartment, training test) [13]: 20.9 ± 4.5 s
- 1st Day (latency time for entering the dark compartment, training test) (30 mg kg^-1 injected 20 min before training, + Clonidine 0.125 mg kg^-1 i.p. after training): 11.6 ± 3.7 s
- 1st Day (latency time for entering the dark compartment, training test) (30 mg kg^-1 injected 20 min before training, + Mecamilamine 20 mg kg^-1 i.p. after training): 16.7 ± 4.8 s
- 1st Day (latency time for entering the dark compartment, training test) [14]: 17.6 ± 3.6 s
